In BindingDB's records for doi:10.7270/Q2TD9VTQ (Burnham Center For Chemical Genomics, 2010):

Biological target: T1, Caspase-1 (Homo sapiens, UniProt P29466)
T1 sequence (P29466 whole entry): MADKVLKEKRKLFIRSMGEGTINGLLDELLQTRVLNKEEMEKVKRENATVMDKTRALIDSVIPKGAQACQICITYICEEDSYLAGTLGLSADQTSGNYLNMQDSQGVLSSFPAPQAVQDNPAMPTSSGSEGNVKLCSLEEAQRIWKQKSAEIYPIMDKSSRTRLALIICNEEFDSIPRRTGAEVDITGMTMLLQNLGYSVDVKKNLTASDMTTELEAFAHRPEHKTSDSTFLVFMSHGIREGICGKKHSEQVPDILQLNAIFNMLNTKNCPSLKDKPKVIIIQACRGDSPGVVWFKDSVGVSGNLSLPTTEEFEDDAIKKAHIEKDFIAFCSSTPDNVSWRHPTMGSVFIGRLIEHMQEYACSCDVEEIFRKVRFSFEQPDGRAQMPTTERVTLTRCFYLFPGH
Experiment: Yeast CASP1/ASC signal blockade, IC50 values, counterassay for NLRP1 inhibitor project (AID 488863)

SMILES | IC50
Oc1cc(Sc2nnnn2-c2ccccc2)c(O)n1-c1cccc(Cl)c1 | 5.13 µM
Cc1ccc(-n2c(O)cc(Sc3ccccc3C(=O)O)c2O)cc1 | 20.6 µM
COc1ccccc1-n1c(O)c2c(c1O)CC(c1ccccc1)CC2 (stereo not drawn) | > 100 µM
